In the assay the target is Microphthalmia-associated transcription factor (Homo sapiens) (UniProt O75030). Briefly: MITF inhibitors by FRET titration, dose response, biochemical, high throughput (AID 1259375).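 Note: FRET between CFP-tagged and YFP-tagged MITF protein partners.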 To be noted: FRET biochemical assay, MITF inhibition.

This note sets out measurements from PubChem BioAssay AID1259375 (The Scripps Research Institute Molecular Screening Center, 2018).

In general, IC50 refers to the point on the concentration scale where inhibition reaches its midpoint.

The source made the active and inactive calls. The rule behind the calls is not given here.

Sequence of Microphthalmia-associated transcription factor (Homo sapiens) (O75030 whole entry, looked up): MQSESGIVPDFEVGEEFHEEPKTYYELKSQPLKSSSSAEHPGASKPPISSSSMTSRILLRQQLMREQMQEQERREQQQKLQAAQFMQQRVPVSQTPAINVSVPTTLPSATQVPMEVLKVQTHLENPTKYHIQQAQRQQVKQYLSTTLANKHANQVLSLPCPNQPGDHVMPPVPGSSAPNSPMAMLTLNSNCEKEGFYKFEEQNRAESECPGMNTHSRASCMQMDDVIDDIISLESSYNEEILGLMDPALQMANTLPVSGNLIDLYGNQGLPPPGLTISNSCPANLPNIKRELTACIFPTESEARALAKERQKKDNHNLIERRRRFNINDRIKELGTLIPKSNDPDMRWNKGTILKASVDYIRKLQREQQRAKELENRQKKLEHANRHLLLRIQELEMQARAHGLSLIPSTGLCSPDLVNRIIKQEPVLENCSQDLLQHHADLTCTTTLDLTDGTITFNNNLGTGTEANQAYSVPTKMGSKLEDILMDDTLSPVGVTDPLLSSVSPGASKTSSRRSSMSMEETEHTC

As for `CN(C)c1ccc(O)c2c1C[C@H]1C[C@H]3[C@H](N(C)C)C(=O)C(C(N)=O)=C(O)[C@@]3(O)C(=O)C1=C2O`, the IC50 is 3.08 µM.

For `O=C(NCCc1ccc(O)cc1)c1cccc(-c2cccs2)c1`, the IC50 was > 6.26 µM (inactive).

For the compound `CC(C)N(C)CCOC(=O)/C=C/c1ccco1`, the IC50 is > 6.48 µM (inactive).

With `O=C(c1cccc(F)c1)N1CCN(Cc2ccncc2)CC1`, the IC50 was > 5.66 µM (inactive).

For the compound `CCc1ccc(CN2CCN(Cc3cc(OC)c(O)c(OC)c3)CC2)cc1`, the IC50 was > 5.79 µM (inactive).

As to `O=C(O)c1ccc(NC2OC(CO)C(O)C2O)cc1` (configuration not stated), the IC50 was > 5.62 µM (inactive).

As for `CNC(=O)Nc1ccc2nc(-c3ccco3)c(-c3ccco3)nc2c1`, the IC50 was > 6.48 µM (inactive).

With `CCc1ccc(NC(=O)CS(=O)CC(=O)NCCCc2ccccc2)cc1` (configuration not stated), the IC50 is > 6.48 µM (inactive).

Consider `COc1cc(C(=O)N2CCN(Cc3ccccc3C)CC2)cc(OC)c1OC`, for which the IC50 was > 5.62 µM (inactive).

As to `O=C(O)c1cc(N/N=C/c2ccc(N3CCOCC3)s2)ccc1Cl`, the IC50 is 3.77 µM.

As for `O=C(COC(=O)COc1ccc(Cl)cc1)NCc1ccco1`, the IC50 is > 7.21 µM (inactive).

In the case of `CN1CCN(CCNC(=O)c2cccc(CN(C(=O)c3nc4ccc(-c5cn[nH]c5)cc4s3)C3CC3)c2)CC1`, the IC50 was > 6.48 µM (inactive).

For `O=C(Nc1ccc(C(=O)Nc2ccc(C(=O)Nc3ccc(S(=O)(=O)O)c4cc(S(=O)(=O)O)cc(S(=O)(=O)O)c34)cc2)cc1)Nc1ccc(C(=O)Nc2ccc(C(=O)Nc3ccc(S(=O)(=O)O)c4cc(S(=O)(=O)O)cc(S(=O)(=O)O)c34)cc2)cc1`, the IC50 was > 6.48 µM (inactive).

Turning to `O=C(Nc1ccc(N2CCOCC2)cc1)c1ccc2nc(-c3cccs3)sc2c1`, the IC50 was > 7.76 µM (inactive).

With `CCOC(=O)C1C2NC(=S)N(c3cccc(Cl)c3)C1(C)Oc1c(OC)cccc12` (configuration not stated), the IC50 is > 5.09 µM (inactive).

Turning to `COc1cc(CN2CCN(C3CCCC3)CC2)cc(OC)c1OC`, the IC50 is > 6.48 µM (inactive).

`O=C1NC(=O)/C(=C\c2ccc(O)cc2O)S1`: the IC50 was > 6.48 µM (inactive).

In the case of `Cc1ccc(N2C(=O)c3ccccc3NC2c2cccc([N+](=O)[O-])c2)cc1` (configuration not stated), the IC50 is > 5.15 µM (inactive).

For the compound `COc1ccc(CN2CCN(Cc3cccc(Cl)c3)CC2)cc1Br`, the IC50 was > 6.11 µM (inactive).

For the compound `O=C1N[C@@H](CC2CCCCC2)C(=O)N2CCN(C(=O)NCc3ccccc3)C[C@H]12`, the IC50 was > 6.48 µM (inactive).

Regarding `Cc1ccc(S(=O)(=O)C(CNC(=O)c2ccco2)c2cccs2)cc1` (configuration not stated), the IC50 is > 6.56 µM (inactive).

`O=C(Nc1cc(S(=O)(=O)O)cc2cc(S(=O)(=O)O)cc(O)c12)c1ccccc1`: the IC50 was > 6.48 µM (inactive).

On to `COC(=O)CSc1nnc(-c2cnccn2)n1C`, for which the IC50 was > 6.48 µM (inactive).

With `Cc1c(NC(=O)C(C)OC(=O)c2cc3c(s2)CCC3)c(=O)n(-c2ccccc2)n1C` (configuration not stated), the IC50 was > 6.7 µM (inactive).

For the compound `C[C@H]1NC(=O)[C@H]2CN(C(=O)NC3CCCCC3)CCN2C1=O`, the IC50 is > 6.48 µM (inactive).

As to `O=C1N[C@@H](COCc2ccccc2)C(=O)N2CCN(C(=O)NCc3ccccc3)C[C@H]12`, the IC50 is > 6.48 µM (inactive).

For `O=C(NNC(=S)Nc1ccccc1)C(=O)NNC(=S)Nc1ccccc1`, the IC50 was > 6.67 µM (inactive).

With `Nc1cccc(N2C(=O)c3cc(S(=O)O)cc4c(N)c(S(=O)O)cc(c34)C2=O)c1`, the IC50 was > 6.48 µM (inactive).

As for `COc1cc2cc3c(N)c(C(=O)Nc4sc(C)c(C)c4C#N)sc3nc2cc1OC`, the IC50 was > 6.48 µM (inactive).

`COC(C)(C)CNC(=O)C1CCN(C2CCN(Cc3cccc(C)n3)CC2)CC1`: the IC50 was > 6.48 µM (inactive).

With `Cc1cc2c(c(=O)[nH]1)C(=O)O/C2=C\c1ccc(C)o1`, the IC50 is > 6.86 µM (inactive).

For the compound `CC(C)NC(=O)c1cccc(NC(=O)Nc2ccc(-c3ncnc4[nH]cc(Cl)c34)cc2)c1`, the IC50 was > 6.48 µM (inactive).

As for `CCC12c3ccccc3C(c3ccccc31)C1C(=O)NC(=O)C12` (configuration not stated), the IC50 was > 6.48 µM (inactive).

Turning to `CCN1CCN(Cc2coc3ccccc3c2=O)CC1`, the IC50 is > 6.48 µM (inactive).

Take `CC(C)C[C@H]1NC(=O)[C@H]2CN(C(=O)NC3CCCCC3)CCN2C1=O`: the IC50 was > 6.48 µM (inactive).

Consider `Cc1cc2ncn(Cc3noc(-c4ccco4)n3)c2cc1C`, for which the IC50 was > 6.48 µM (inactive).

Turning to `CC(C)C[C@H]1C(=O)N2CCN(C(=O)NC3CCCCC3)C[C@@H]2C(=O)N1C`, the IC50 was > 6.48 µM (inactive).

`O=[N+]([O-])c1ccc(N/N=C/c2ccco2)c(S(=O)(=O)N2CCOCC2)c1`: the IC50 is > 6.48 µM (inactive).

Consider `O=C(O)CCN(CCC(=O)O)c1ccc(O)cc1`, for which the IC50 is 2.99 µM.

As for `COc1ccc2c(c1)CC(C(=O)Nc1ccc(-c3cn[nH]c3)cc1OCC#N)CO2` (configuration not stated), the IC50 was > 6.48 µM (inactive).

Consider `CC[C@H](C)[C@@H]1NC(=O)[C@H]2CN(C(=O)Nc3cccc(F)c3)CCN2C1=O`, for which the IC50 is > 6.48 µM (inactive).

With `COc1cc(N2CCOCC2)ccc1Nc1cc(NC(C)(C)c2ccccc2)c(C(F)(F)F)cn1`, the IC50 is > 6.48 µM (inactive).

Take `Cc1cc(N=Cc2ccc([N+](=O)[O-])o2)ccc1S(=O)(=O)O`: the IC50 was > 6.48 µM (inactive).

On to `Cc1cc(/C=C2/C=CC(=O)O2)oc1C`, for which the IC50 is > 7.29 µM (inactive).

With `O=C1O[C@H](C(O)CO)C(O)=C1O` (some centres not stated), the IC50 is > 6.48 µM (inactive).

For the compound `COc1ccc(CC2NCCc3cc(OC)c(OC)cc32)cc1OC` (configuration not stated), the IC50 is 0.925 µM.

Turning to `CCN(CC)CC(=O)Nc1ccc(OC)cc1`, the IC50 was > 6.48 µM (inactive).

Regarding `NC(=O)/C(=C\c1cccc([N+](=O)[O-])c1)NC(=O)c1ccc(Br)cc1`, the IC50 is > 6.48 µM (inactive).

In the case of `O=C(NNC(=O)c1cc(-c2ccco2)nc2ccccc12)NC1CCCCC1`, the IC50 is > 6.48 µM (inactive).

Consider `CCN(CC)C(=S)NC(=O)/C=C/c1ccco1`, for which the IC50 was > 6.48 µM (inactive).

`COc1cc(/C=N/N=C2\NC(=O)C(CC(=O)O)S2)ccc1OCc1ccc(C)cc1` (configuration not stated): the IC50 is > 6.48 µM (inactive).

Turning to `CN(C)/C=C/C=C/C(=O)C1CCC/C(=C\C=C\N(C)C)C1=O` (configuration not stated), the IC50 was > 6.48 µM (inactive).

As to `CC(C)NC(=O)/C(C#N)=C/c1ccc(-c2ccc([N+](=O)[O-])cc2Br)o1`, the IC50 is > 7.06 µM (inactive).

For the compound `CC(C)[C@H]1NC(=O)[C@H]2CN(C(=O)NC3CCCCC3)CCN2C1=O`, the IC50 is > 6.48 µM (inactive).

In the case of `O=C1N[C@H](CO)C(=O)N2CCN(C(=O)NCc3ccccc3)C[C@H]12`, the IC50 was > 6.48 µM (inactive).

As to `CN(C)CCS(=O)c1cc(-c2cn[nH]c2)ccc1NC(=O)[C@@H]1Cc2cc(F)ccc2CN1` (some centres not stated), the IC50 is > 6.48 µM (inactive).

For `COc1ccc2c(c1)CC(C(=O)Nc1ccc(-c3cn[nH]c3)cc1OCC(N)=O)CO2` (configuration not stated), the IC50 is > 6.48 µM (inactive).

On to `C/C(=N\Nc1ccc(S(=O)(=O)O)cc1)c1ccc([N+](=O)[O-])o1`, for which the IC50 is > 6.48 µM (inactive).

For the compound `O=C(/C=C/c1ccco1)NC(=S)Nc1cc(C(=O)O)ccc1Cl`, the IC50 is 3.33 µM.

On to `CN(C)CCS(=O)c1cc(-c2cn[nH]c2)ccc1NC(=O)[C@H]1Cc2cc(F)ccc2CN1` (some centres not stated), for which the IC50 is > 6.48 µM (inactive).

In the case of `Cc1cc(C(=O)O)ccc1-c1ccc(/C=C2/NC(=O)NC2=O)o1`, the IC50 was > 6.48 µM (inactive).

In the case of `C[C@@H](O)[C@@H]1NC(=O)[C@H]2CN(C(=O)NCc3ccccc3)CCN2C1=O`, the IC50 is > 6.48 µM (inactive).

As for `C[C@H]1NC(=O)[C@H]2CN(C(=O)NCc3ccccc3)CCN2C1=O`, the IC50 was > 6.48 µM (inactive).

Consider `Cc1ccc(-c2ncn(-c3ccc(Nc4cc(-n5cnc(Nc6ccccc6)n5)c(F)cn4)cc3)n2)cn1`, for which the IC50 was > 6.48 µM (inactive).

On to `COc1ccc(C)cc1NS(=O)(=O)c1ccc2c(c1)CCC(=O)N2`, for which the IC50 was > 6.48 µM (inactive).

With `CCC(C)c1ccccc1OCCNCCN(C)C` (configuration not stated), the IC50 was > 6.48 µM (inactive).

With `S=c1[nH]nc(-c2cccnc2)n1/N=C/C=C/c1ccco1`, the IC50 was > 6.48 µM (inactive).

Turning to `c1ccc(COc2ccc(OCCCCn3ccnc3)cc2)cc1`, the IC50 was > 6.48 µM (inactive).

As to `CC(C)[C@@H]1NC(=O)[C@H]2CN(C(=O)NC3CCCCC3)CCN2C1=O`, the IC50 was > 6.48 µM (inactive).

For `O=C(NC1CCCCC1)N1CCN2C(=O)[C@@H]3CCCN3C(=O)[C@H]2C1`, the IC50 was > 6.48 µM (inactive).

`CN(C)CCn1nnnc1SCC1=C(C(=O)O)N2C(=O)[C@@H](NC(=O)Cc3csc(N)n3)[C@H]2SC1`: the IC50 was > 6.48 µM (inactive).

In the case of `CC(Oc1ccc2c(C(F)(F)F)cc(=O)oc2c1)C(=O)NN` (configuration not stated), the IC50 is > 6.56 µM (inactive).

Regarding `C=C1c2cccc(O)c2C(O)=C2C(=O)[C@]3(O)C(O)=C(C(N)=O)C(=O)[C@@H](N(C)C)[C@@H]3[C@@H](O)[C@H]12`, the IC50 is > 6.48 µM (inactive).

For the compound `O=C(O)c1c2c(nc3ccc(S(=O)(=O)N4CCC(C(=O)O)CC4)cc13)CCC2`, the IC50 was > 6.48 µM (inactive).

Take `Cn1cc(-c2nc(Nc3ccc(-n4cnc(N5CCOCC5)n4)cc3)ncc2Br)cn1`: the IC50 is > 6.48 µM (inactive).

On to `N#C/C(=C\c1ccc(-c2ccccc2C(=O)O)o1)C(=O)NCc1ccco1`, for which the IC50 was > 6.48 µM (inactive).

As to `O=C(NCCO)c1cccc(-c2cccs2)c1`, the IC50 was > 8.06 µM (inactive).

For `CC(=O)Nc1ccc(N2C(=O)c3ccccc3C2(O)Cc2ccccc2)cc1` (configuration not stated), the IC50 is > 6.48 µM (inactive).

For `O=C1N[C@@H](Cc2ccc(O)cc2)C(=O)N2CCN(C(=O)NCc3ccccc3)C[C@H]12`, the IC50 was > 6.48 µM (inactive).

Regarding `CCOC(=O)C1C2NC(=S)N(c3ccc(CC)cc3)C1(C)Oc1c(OCC)cccc12` (configuration not stated), the IC50 was > 5.53 µM (inactive).

As for `CCC(C)NCCOc1cccc(Br)c1` (configuration not stated), the IC50 was > 6.48 µM (inactive).

For `Cc1n[nH]c(=O)nc1NNc1ccc(C(=O)O)cc1`, the IC50 is > 6.48 µM (inactive).
